We go through one molecule from patent US20250082646A1, “OVARIAN ANTI-AGING PHARMACEUTICAL COMPOSITION AND USE THEREOF” (priority 2022, published 2025).

One test relates to old ovaries (GV oocytes). Kind of test: Number of GV oocytes collected from ovaries after superovulation. The class given is in vivo, mouse. The note with it: old ovaries treated vs old ovaries not treated; FIGS. 1B and 1C. The procedure: Female mice (young mice: 7-8 weeks old; old mice: 40 weeks or older) were superovulated by intraperitoneally injecting pregnant mare serum gonadotropin (PMSG: G4527, Sigma Aldrich: 7.5 IU). Germinal vesicle (GV) oocytes were collected from the ovaries 48 hours after PMSG injection. For zygotes, female mice were injected with PMSG, and 48 hours later, injected with hCG, and then placed overnight with BDF1 stud male mice, which were approximately 10 to 12 weeks old. The next day, plugs of the female mice were examined, and zygotes and two-cell embryos were collected from the oviducts 18 to 20 hours and 36 hours after hCG injection, respectively.
After inducing superovulation, the numbers of GV oocytes in the ovaries of the old mice and young mice treated with Example Compound were evaluated.
The measurement of the number of GV oocytes was performed by collecting mouse eggs from each group (the number of eggs of young mice: 15: the number of eggs of old mice: 30; and the number of eggs of old mice treated with Example Compound: 30), physically chopping the eggs to collect ovarian follicles, and isolating GV oocytes in the ovarian follicles to count the number of cells.

For test [1], the system named is mouse ovaries stimulated with PMSG. Kind of test: Histology (hematoxylin and eosin) of ovaries after PMSG stimulation in vivo: number of ovarian follicles. The note with it: treated ovaries compared to the ovaries of the control; after hormonal stimulation; FIG. 1A. The procedure:
In this experiment, as a control, young mice (7 to 9 weeks old, n=15), and as an experimental group, old mice (55 to 60 weeks old, n=30) were prepared. In the drawing, the experimental results of the young mice are indicated as ‘Young,’ and the experimental results of the old mice are indicated as ‘Old.’
(§1) For in vivo hormone stimulation, the old mice were treated with the Example compound, and 12 hours later, 75 IU pregnant mare serum gonadotropin (PMSG: RP1782725000; BioVendor, Czech Republic) was injected into the mice. A control is a group administered only 751U PMSG. Female mice were superovulated by injecting hormones intraperitoneally at intervals of 48 hours. The administered hormones were PMSG (7.5 IU) and human chorionic gonadotropin (hCG: 668900221; LG Chem. Seoul, Korea: 7.5 IU). After secondary hormone treatment, female mice were mated with male mice (2:1 or 1:1). Modified pronuclear cells (2PNs) were obtained 24 hours after hCG injection.
In Experimental Example 1, the effect of treatment with Example Compound on mouse ovaries stimulated with PMSG in vivo was evaluated. Light microscopy imaging was performed on the ovaries of young mice, and old mice treated and not treated with Example Compound.
Each sample was fixed with 4% paraformaldehyde at room temperature for 30 minutes, and the fixed tissue was washed with PBS and embedded in paraffin with a thickness of 5 μm. […]

Another test deals with ovaries of old mice. Kind of test: Ovarian gene expression pattern by next generation sequencing (mRNA sequencing). The class given is in vivo, mouse. The note with it: NGS; genes increased in the old group. On the procedure:
A major change in gene expression caused by treatment with Example Compound was confirmed through next generation sequencing (NGS).
mRNA sequencing was performed according to References. RNA was extracted using a TRIzol (15596026. Thermo Fisher) solution. Sequencing libraries were prepared according to the manufacturer's instructions using the TruSeq Stranded mRNA LT Sample Prep Kit (Illumina). Paired end 101 bp sequencing was performed using the Illumina platform (NovaSeq 6000, Illumina). The results of two experiments were obtained for each group.
According to the criteria (1st trimming, base quality<3, window size=4, mean quality=15; 2nd trimming: min length=36 bp), paired end read data was trimmed using Trimmomatic (Bolger et al., 2014). Using the HISAT2 program (Kim et al., 2019; Nat Biotechnol 37, 907-915, 2019), trimmed reads were mapped to the UCSC genome database. Also, the mapping results were quantified using StringTie (Pertea et al., 2015; Nat Biotechnol. 2015 March; 33(3): 290-295) and gene/transcript-based annotations (NCBI Annotation Release 108).
Differential expression gene analysis was performed using DESeq2 according to the criteria (baseMean counts>14, false discover rate (FDR)<0.1, and log 2FoldChange>1). […]

Test [2] concerns fertilized 2PN embryos of old mice. The test is described as follows: Pre-implantation development of fertilized 2PN embryos from treated old mice. The class given is in vivo, mouse. On the procedure: as §1
In Experimental Example 2, the effect of fertilized 2PN embryo development on the ovaries of the old mice treated with Example Compound was evaluated.
27 pronuclear cells of the old mice (n=15) treated with Example Compound and 62 pronuclear cells of the old mice (n=15) not treated with Example Compound as a control were cultured. Afterward, the number of cells at each of 2-cell, 4-cell, 8-cell, morula, early blastocyst, and late blastocyst stages was measured using a microscope, and expressed as a percentage.

Test [3] deals with Ptpn6, Fcer1g, Tyrobp, Slamf9, Clec4a3 mRNA. Kind of test: RT-qPCR of immune system regulatory genes (tumor necrosis factor superfamily cytokine production) in ovaries. In kind it is in vivo, mouse. The note with it: old experimental group treated, FIG. 3B. On the procedure:
In this experiment, a change in the expression of immune system regulatory genes (genes involved with tumor necrosis factor superfamily cytokine production) was quantitatively evaluated using real-time quantitative PCR (RT-qPCR) according to the treatment of aged models with Example Compound.
RT-qPCR was performed on each ovary using the TRIzol protocol, total RNA was extracted from a lysate using the RNeasy mini kit (Qiagen Ltd.), and the extracted total RNA was reverse-transcribed using a Superscript kit (Invitrogen) containing a random hexamer to synthesize cDNA.
Gene expression levels were confirmed using primers and the SsoAdvanced Universal SYBR Green Supermix (Bio-Rad. US) in the CFX96 Touch Real-Time PCR detection system (Bio Rad, US).
For each gene tested, a comparative threshold cycle (CT) method that normalizes the accumulated PCR product to the reference gene beta-actin was used, and repeated three times.
The PCR product was loaded on a 2% agarose gel and stained with Safeview™ (Applied Biological Materials. Richmond, Canada), and the gel was visualized under UV light using a gel documentation system (WSE-6100 LuminoGraph; ATTO, Tokyo, Japan), and the product bands were analyzed by the analysis of intensity ratios using ImageJ software.

The subject of test [4] is longevity-related genes, steroidogenesis-related genes, primordial follicle factors, ovarian function factors. Kind of test: RT-PCR of ovarian function-related genes in ovaries of old mice. The class given is in vivo, mouse. An excerpt:
The expression of ovarian function-related genes in the ovaries of old mice treated with Example Compound was confirmed by reverse transcription-polymerase chain reaction (RT-PCR).
mRNA was extracted from oocytes using a TRIzol (TRIzol RNA, 15596026, Thermo Fisher) solution and subjected to RT-PCR. The PCR product was stained with SafeView™ (Applied Biological Materials, Richmond, Canada) and loaded on a 2% agarose gel. Additionally, the gel was visualized under UV light using a gel documentation system (WSE-6100 LuminoGraph; ATTO, Tokyo, Japan). The intensity ratios of the product bands were analyzed using the ImageJ software program.
The expression of primordial follicle factors, such as Nanog, Oct3/4, and p63, and ovarian function factors, such as AMH and BMP15, in the ovaries of the mice treated with Example Compound were analyzed by RT-PCR.
In FIGS. 4A and 4B, “Young” indicates a young mouse, “Old” indicates an old mouse, and “Old+Compound 1” indicates an old mouse treated with Example Compound.
In FIG. 4A, the upper left box indicates longevity-related genes, the lower left box indicates steroidogenesis-related genes, the upper right box indicates primordial follicle factors, and the lower right box indicates ovarian function factors.

Setting [5] is: old mice treated, 27 pronuclear cells cultured.
Where [6] appears, read: old mice treated vs old mice not treated.

In the case of `O=S1(=O)CCN(Cc2cc(NC3CCOCC3)c3[nH]c(-c4ccccc4)cc3c2)CC1` [Example Compound, 5-[(1,1-dioxido-4-thiomorpholinyl)methyl]-2-phenyl-N-(tetrahydro-2H-pyran-4-yl)-1H-indol-7-amine], the “total number of oocytes collected at the GV stage” value in the test on old ovaries (GV oocytes) is recorded as “significantly higher”. Further, the “total number of ovarian follicles, including preantral follicles and antral follicles” value in test [1] was “significantly higher”. Also, the “expression of Fcerlg, Slamf9, Clec4a3, Ptpn6, Tyrobp, Adipoq, Bcl3, Trem2, and Sash3 (TNF superfamily cytokine production DEGs)” value with ovaries of old mice was “down-regulated”. Moreover, the “embryo development rate higher than that of the control embryo” value in test [2] (at the morula, early blastocyst, and late blastocyst stages, old mice, FIG. 2) is listed as 20%. Further, in test [2] (setting [5]), the early blastocyst rate is given as 51.85%, the “embryo development rate at the morula stage” value turned out to be 55.56% and the late blastocyst rate stood at 51.85%. For the same molecule, in test [3], the “mRNA expression levels of Ptpn6, Fcerlg, Tyrobp, Slamf9, and Clec4a3” value was “lowered to levels similar to those of the young control”. In test [4] (setting [6]), the “expression levels of SOD2 and SIRT1 (longevity-related genes)” value was “higher”; the “expression levels of steroid production-related genes Edn2, Tbxa2r, Oxtr, and Adra1d” value was “significantly increased”. Further, in test [4] (treated vs control not treated, FIGS. 4A and 4B), the “mRNA expression of Oct3/4, Nanog, p63, Lhcgr, AMH, GDF9, BMP15, and Kid” value is “significantly higher”.
